Our source for the TGI values is PubChem BioAssay (NCI).

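Cells were grown in 96-well plates and exposed to each compound for 48 hours at five concentrations; endpoints were interpolated linearly between bracketing concentrations, or set to the highest concentration if not reached. TGI: concentration producing complete growth inhibition.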

Test systems include CAKI-1 renal; EKVX NSCLC; HCC-2998 colon; HCT-15 colon; HOP-92 NSCLC; HS 578T breast; HT29 colon; M14 melanoma; MALME-3M melanoma; NCI-H226 lung; NCI-H23 lung; NCI/ADR-RES ovarian; OVCAR-3 ovarian; OVCAR-4 ovarian; SF-268 CNS; SF-539 CNS; SK-MEL-28 melanoma; SK-OV-3 ovarian; SW-620 colon; UACC-62 melanoma.
What all share (assay): inhibition of tumour cell growth, NCI panel, 48 h

Regarding `CC1(C)CC(=O)c2c([nH]c(=S)c(C#N)c2-c2ccc(Br)cc2)C1`, the TGI in the experiment on CAKI-1 renal is above 100 µM; with EKVX NSCLC it was above 100 µM; with HCC-2998 colon it was above 100 µM; in the experiment on HCT-15 colon, above 100 µM; in the experiment with HOP-92 NSCLC, 52.5 µM; in the experiment on HS 578T breast it was above 100 µM. Also, the TGI with HT29 colon, with M14 melanoma, in the experiment with MALME-3M melanoma, in the experiment with NCI-H226 lung, with NCI-H23 lung and in the experiment with NCI/ADR-RES ovarian was above 100 µM each time. Also, the TGI in the experiment on OVCAR-3 ovarian, in the experiment with OVCAR-4 ovarian, in the experiment with SF-268 CNS, with SF-539 CNS, in the experiment on SK-MEL-28 melanoma and in the experiment with SK-OV-3 ovarian was above 100 µM throughout. Also, the TGI in the experiment with SW-620 colon and with UACC-62 melanoma was above 100 µM throughout.
In the case of `C=C1CC(COc2ccc3c(C)c(Cl)c(=O)oc3c2)(c2ccccc2)OC1=O` (stereo not given), the TGI in the experiment on CAKI-1 renal was found to be 3.12 µM; in the experiment on EKVX NSCLC it was 31.2 µM; in the experiment on HCC-2998 colon it was 3.59 µM; with HCT-15 colon, 5.13 µM; in the experiment on HOP-92 NSCLC it was 3.01 µM; in the experiment on HS 578T breast it was 17.5 µM. Besides, the TGI is 2.67 µM in the experiment with HT29 colon; 2.24 µM in the experiment on M14 melanoma; 3.75 µM in the experiment on MALME-3M melanoma; 8.01 µM in the experiment on NCI-H226 lung; 3.84 µM in the experiment with NCI-H23 lung; 11.4 µM in the experiment with NCI/ADR-RES ovarian. The TGI amounted to 6.71 µM with OVCAR-3 ovarian; 3.67 µM in the experiment with OVCAR-4 ovarian; 19 µM in the experiment on SF-268 CNS; 7.34 µM in the experiment with SF-539 CNS; 6.43 µM with SK-MEL-28 melanoma; 16.2 µM in the experiment on SK-OV-3 ovarian. Moreover, the TGI in the experiment with SW-620 colon worked out at 2.62 µM; in the experiment on UACC-62 melanoma it was 3.53 µM.
For `COc1c(N2CCCCC2)c2c(=O)c3ccccc3oc2c2cc(C)oc12`, the TGI in the experiment on CAKI-1 renal was 37.3 µM; in the experiment with EKVX NSCLC it was 89.1 µM; with HCC-2998 colon, above 100 µM; in the experiment on HCT-15 colon, above 100 µM; in the experiment with HOP-92 NSCLC it was 55.6 µM; in the experiment on HS 578T breast it was 79.6 µM. In addition, the TGI in the experiment with HT29 colon was 38.6 µM; with M14 melanoma, 53.6 µM; in the experiment with MALME-3M melanoma, 81 µM; with NCI-H226 lung, 45.4 µM; with NCI-H23 lung, above 100 µM; with NCI/ADR-RES ovarian it was above 100 µM. The TGI in the experiment on OVCAR-3 ovarian, in the experiment on OVCAR-4 ovarian, with SF-268 CNS, in the experiment with SF-539 CNS, in the experiment with SK-MEL-28 melanoma and with SK-OV-3 ovarian was above 100 µM throughout. Further, the TGI in the experiment on SW-620 colon was above 100 µM; in the experiment on UACC-62 melanoma it was 68.3 µM.
For the molecule `SCc1ccc(-c2ccc(CS)cc2)cc1`, the TGI was determined as 18.5 µM in the experiment on CAKI-1 renal; 54.1 µM with EKVX NSCLC; 30.6 µM in the experiment on HCC-2998 colon; 33.3 µM in the experiment on HCT-15 colon; 40.8 µM in the experiment on HOP-92 NSCLC; 22.3 µM in the experiment with HS 578T breast. The TGI was 69.8 µM with HT29 colon; 29.8 µM in the experiment with M14 melanoma; 36.1 µM in the experiment on MALME-3M melanoma; 36.9 µM in the experiment on NCI-H226 lung; 31.7 µM with NCI-H23 lung; 32.3 µM in the experiment with NCI/ADR-RES ovarian. Besides, the TGI in the experiment with OVCAR-3 ovarian is 32.2 µM; in the experiment with OVCAR-4 ovarian it was 17.5 µM; in the experiment on SF-268 CNS it was 10.3 µM; in the experiment on SF-539 CNS it was 33.5 µM; with SK-MEL-28 melanoma, 24.3 µM; in the experiment with SK-OV-3 ovarian, 33.2 µM. For the same molecule, the TGI with SW-620 colon came out at 60 µM; in the experiment on UACC-62 melanoma, 41.2 µM.
For the molecule `Nc1nc(N)c2c(CCc3ccc(C(=O)N[C@@H](CCC(=O)O)C(=O)O)cc3)ccnc2n1`, the TGI is above 100 µM with CAKI-1 renal; above 100 µM in the experiment with EKVX NSCLC; 0.0952 µM with HCC-2998 colon; above 100 µM in the experiment on HCT-15 colon; above 100 µM in the experiment on HOP-92 NSCLC; above 100 µM with HS 578T breast. The TGI with HT29 colon, with M14 melanoma, in the experiment with MALME-3M melanoma, in the experiment with NCI-H226 lung, in the experiment with NCI-H23 lung and with NCI/ADR-RES ovarian was above 100 µM throughout. The TGI in the experiment on OVCAR-3 ovarian, in the experiment with OVCAR-4 ovarian, in the experiment on SF-268 CNS, in the experiment on SF-539 CNS, in the experiment with SK-MEL-28 melanoma and with SK-OV-3 ovarian was above 100 µM throughout. In addition, the TGI with SW-620 colon and in the experiment on UACC-62 melanoma was above 100 µM in each case.
As to `COc1cc(/C=C2/CCCc3ccccc3C2=O)cc(OC)c1OC`, the TGI in the experiment on CAKI-1 renal is above 59.5 µM; in the experiment with EKVX NSCLC it was above 92.2 µM; in the experiment on HCC-2998 colon, above 74 µM; with HCT-15 colon, above 100 µM; in the experiment on HOP-92 NSCLC it was above 82.2 µM; in the experiment on HS 578T breast, above 84.2 µM. Besides, the TGI with HT29 colon was above 100 µM; in the experiment on M14 melanoma, above 67.4 µM; with MALME-3M melanoma, 29.5 µM; in the experiment with NCI-H226 lung it was above 79.8 µM; with NCI-H23 lung, above 87 µM; in the experiment with NCI/ADR-RES ovarian, above 100 µM. Further, the TGI with OVCAR-3 ovarian was above 55.6 µM; with OVCAR-4 ovarian, above 100 µM; in the experiment on SF-268 CNS, above 52.3 µM; in the experiment on SF-539 CNS, above 64.7 µM; in the experiment on SK-MEL-28 melanoma, above 100 µM; in the experiment on SK-OV-3 ovarian, above 68.1 µM. Further, the TGI in the experiment with SW-620 colon was above 100 µM; in the experiment on UACC-62 melanoma, above 67.4 µM.
In the case of `Clc1ccc(C2ON=C(c3ccccc3)N2C23CC4CC(CC(C4)C2)C3)cc1Cl` (stereo not given), the TGI in the experiment with CAKI-1 renal, with EKVX NSCLC, in the experiment with HCC-2998 colon, in the experiment with HCT-15 colon, in the experiment with HOP-92 NSCLC and in the experiment with HS 578T breast was above 10 µM throughout. Moreover, the TGI in the experiment on HT29 colon, in the experiment on M14 melanoma, with MALME-3M melanoma, with NCI-H226 lung, in the experiment with NCI-H23 lung and with NCI/ADR-RES ovarian was above 10 µM in each case. Further, the TGI with OVCAR-3 ovarian, in the experiment with OVCAR-4 ovarian, in the experiment on SF-268 CNS, with SF-539 CNS, in the experiment on SK-MEL-28 melanoma and with SK-OV-3 ovarian was above 10 µM each time. The TGI in the experiment on SW-620 colon and with UACC-62 melanoma was above 10 µM in each case.
